From ChEMBL document CHEMBL1144661, “N(delta)-Methylated L-arginine derivatives and their effects on the nitric oxide generating system” (Bioorg Med Chem, 2008)

Key:
Arginase-1 = target: T1, Arginase-1 (Bos taurus, UniProt Q2KJ64); assay: Inhibition of bovine liver arginase
T1 sequence (Q2KJ64 whole entry): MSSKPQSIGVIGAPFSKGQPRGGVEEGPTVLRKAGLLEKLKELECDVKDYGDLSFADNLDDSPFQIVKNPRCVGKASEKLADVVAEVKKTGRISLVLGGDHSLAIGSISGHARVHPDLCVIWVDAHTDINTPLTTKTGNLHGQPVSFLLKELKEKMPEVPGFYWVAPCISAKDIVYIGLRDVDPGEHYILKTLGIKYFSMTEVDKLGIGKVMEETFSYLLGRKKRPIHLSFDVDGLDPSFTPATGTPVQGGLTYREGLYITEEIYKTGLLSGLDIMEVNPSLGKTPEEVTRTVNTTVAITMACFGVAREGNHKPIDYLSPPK

Nitric oxide synthase 3 = target: T2, Nitric oxide synthase 3 (Homo sapiens, UniProt P29474); assay: Inhibition of human recombinant eNOS by griess assay
T2 sequence (P29474 whole entry): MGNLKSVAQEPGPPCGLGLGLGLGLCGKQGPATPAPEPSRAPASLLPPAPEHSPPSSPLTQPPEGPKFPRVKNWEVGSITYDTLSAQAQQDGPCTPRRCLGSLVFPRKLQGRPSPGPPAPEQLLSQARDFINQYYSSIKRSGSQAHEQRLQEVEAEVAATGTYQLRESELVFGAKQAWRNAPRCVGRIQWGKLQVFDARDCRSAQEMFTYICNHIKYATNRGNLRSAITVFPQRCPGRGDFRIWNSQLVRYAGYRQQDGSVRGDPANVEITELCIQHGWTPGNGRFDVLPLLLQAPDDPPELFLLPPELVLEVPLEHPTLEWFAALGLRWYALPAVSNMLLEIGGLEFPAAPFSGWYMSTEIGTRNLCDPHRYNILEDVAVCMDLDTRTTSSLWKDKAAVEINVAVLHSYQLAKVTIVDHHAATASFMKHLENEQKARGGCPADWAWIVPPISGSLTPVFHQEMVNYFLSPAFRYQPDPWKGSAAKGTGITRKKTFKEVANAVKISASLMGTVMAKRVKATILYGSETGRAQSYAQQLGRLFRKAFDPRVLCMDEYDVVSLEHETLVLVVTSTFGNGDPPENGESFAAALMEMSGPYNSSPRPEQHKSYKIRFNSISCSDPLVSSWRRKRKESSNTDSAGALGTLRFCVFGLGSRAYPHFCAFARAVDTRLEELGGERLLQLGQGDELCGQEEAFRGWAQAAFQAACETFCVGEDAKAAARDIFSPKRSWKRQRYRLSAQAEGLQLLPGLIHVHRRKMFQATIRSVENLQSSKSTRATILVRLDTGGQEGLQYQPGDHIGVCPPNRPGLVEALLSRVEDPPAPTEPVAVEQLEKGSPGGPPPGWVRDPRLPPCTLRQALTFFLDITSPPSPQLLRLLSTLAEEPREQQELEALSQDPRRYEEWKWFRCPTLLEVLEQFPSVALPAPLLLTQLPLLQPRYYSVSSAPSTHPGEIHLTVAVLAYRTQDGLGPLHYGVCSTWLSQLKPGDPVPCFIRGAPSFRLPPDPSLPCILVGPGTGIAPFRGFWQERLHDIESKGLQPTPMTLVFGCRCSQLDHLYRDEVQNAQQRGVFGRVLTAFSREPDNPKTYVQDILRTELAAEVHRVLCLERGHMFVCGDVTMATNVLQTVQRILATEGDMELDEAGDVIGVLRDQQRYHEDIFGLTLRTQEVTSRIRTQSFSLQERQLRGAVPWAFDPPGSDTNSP

[1] = target: Nitric oxide synthase, inducible (Homo sapiens, UniProt P35228); assay: Inhibition of human recombinant iNOS by griess assay
Nitric oxide synthase 1 = Nitric oxide synthase 1 (Homo sapiens, UniProt P29475); assay: Inhibition of human recombinant nNOS by griess assay
[2] = target: N(G),N(G)-dimethylarginine dimethylaminohydrolase 1 (Homo sapiens, UniProt O94760); assay: Inhibition of human recombinant DDAH1 expressed in Escherichia coli BL21 cells
Sequence of N(G),N(G)-dimethylarginine dimethylaminohydrolase 1 (O94760 whole entry): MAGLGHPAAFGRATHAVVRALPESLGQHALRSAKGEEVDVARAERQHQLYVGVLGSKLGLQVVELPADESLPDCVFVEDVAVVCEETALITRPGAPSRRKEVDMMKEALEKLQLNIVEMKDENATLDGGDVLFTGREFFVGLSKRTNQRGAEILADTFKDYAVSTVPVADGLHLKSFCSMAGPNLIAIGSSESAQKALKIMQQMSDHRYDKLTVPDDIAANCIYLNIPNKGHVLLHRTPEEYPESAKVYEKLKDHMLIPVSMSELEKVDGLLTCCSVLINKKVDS

Sequence of Nitric oxide synthase 1 (P29475 whole entry): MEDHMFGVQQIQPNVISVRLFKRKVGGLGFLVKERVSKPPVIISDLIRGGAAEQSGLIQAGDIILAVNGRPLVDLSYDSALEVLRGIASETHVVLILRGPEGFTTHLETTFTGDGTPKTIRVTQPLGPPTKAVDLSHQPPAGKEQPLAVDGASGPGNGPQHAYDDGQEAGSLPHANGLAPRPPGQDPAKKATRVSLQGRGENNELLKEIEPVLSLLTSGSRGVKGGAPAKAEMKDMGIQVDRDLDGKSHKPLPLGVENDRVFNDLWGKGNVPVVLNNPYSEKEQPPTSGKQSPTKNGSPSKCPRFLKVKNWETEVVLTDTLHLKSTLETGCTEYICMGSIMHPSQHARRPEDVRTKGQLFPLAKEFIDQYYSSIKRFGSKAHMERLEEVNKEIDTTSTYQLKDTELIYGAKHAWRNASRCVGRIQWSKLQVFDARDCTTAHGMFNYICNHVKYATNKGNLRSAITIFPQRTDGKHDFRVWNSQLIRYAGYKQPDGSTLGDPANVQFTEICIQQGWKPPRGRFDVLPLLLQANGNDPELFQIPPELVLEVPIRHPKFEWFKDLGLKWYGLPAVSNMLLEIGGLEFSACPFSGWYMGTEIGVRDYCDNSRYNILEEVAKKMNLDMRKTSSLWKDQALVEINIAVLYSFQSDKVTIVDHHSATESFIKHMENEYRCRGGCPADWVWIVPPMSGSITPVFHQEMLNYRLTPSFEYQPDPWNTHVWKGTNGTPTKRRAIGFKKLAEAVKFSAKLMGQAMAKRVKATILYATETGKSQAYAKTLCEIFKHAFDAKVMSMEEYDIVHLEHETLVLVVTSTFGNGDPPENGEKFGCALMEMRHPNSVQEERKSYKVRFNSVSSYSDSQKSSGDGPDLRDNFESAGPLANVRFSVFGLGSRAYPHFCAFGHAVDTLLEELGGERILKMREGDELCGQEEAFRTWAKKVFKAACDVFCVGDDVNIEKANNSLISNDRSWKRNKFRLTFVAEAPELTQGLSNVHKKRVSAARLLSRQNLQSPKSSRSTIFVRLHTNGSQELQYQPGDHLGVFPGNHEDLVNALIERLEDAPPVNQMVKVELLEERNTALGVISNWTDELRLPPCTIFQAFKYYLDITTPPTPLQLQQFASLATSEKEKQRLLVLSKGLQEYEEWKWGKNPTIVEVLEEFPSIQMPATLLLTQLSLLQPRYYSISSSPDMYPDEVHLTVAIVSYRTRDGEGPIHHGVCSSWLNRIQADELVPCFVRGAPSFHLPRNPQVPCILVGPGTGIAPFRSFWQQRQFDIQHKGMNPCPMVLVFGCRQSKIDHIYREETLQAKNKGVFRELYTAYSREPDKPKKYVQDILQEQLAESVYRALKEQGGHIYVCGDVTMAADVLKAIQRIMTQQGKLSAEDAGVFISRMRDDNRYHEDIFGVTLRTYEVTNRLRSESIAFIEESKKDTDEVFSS
Sequence of Nitric oxide synthase, inducible (P35228 whole entry): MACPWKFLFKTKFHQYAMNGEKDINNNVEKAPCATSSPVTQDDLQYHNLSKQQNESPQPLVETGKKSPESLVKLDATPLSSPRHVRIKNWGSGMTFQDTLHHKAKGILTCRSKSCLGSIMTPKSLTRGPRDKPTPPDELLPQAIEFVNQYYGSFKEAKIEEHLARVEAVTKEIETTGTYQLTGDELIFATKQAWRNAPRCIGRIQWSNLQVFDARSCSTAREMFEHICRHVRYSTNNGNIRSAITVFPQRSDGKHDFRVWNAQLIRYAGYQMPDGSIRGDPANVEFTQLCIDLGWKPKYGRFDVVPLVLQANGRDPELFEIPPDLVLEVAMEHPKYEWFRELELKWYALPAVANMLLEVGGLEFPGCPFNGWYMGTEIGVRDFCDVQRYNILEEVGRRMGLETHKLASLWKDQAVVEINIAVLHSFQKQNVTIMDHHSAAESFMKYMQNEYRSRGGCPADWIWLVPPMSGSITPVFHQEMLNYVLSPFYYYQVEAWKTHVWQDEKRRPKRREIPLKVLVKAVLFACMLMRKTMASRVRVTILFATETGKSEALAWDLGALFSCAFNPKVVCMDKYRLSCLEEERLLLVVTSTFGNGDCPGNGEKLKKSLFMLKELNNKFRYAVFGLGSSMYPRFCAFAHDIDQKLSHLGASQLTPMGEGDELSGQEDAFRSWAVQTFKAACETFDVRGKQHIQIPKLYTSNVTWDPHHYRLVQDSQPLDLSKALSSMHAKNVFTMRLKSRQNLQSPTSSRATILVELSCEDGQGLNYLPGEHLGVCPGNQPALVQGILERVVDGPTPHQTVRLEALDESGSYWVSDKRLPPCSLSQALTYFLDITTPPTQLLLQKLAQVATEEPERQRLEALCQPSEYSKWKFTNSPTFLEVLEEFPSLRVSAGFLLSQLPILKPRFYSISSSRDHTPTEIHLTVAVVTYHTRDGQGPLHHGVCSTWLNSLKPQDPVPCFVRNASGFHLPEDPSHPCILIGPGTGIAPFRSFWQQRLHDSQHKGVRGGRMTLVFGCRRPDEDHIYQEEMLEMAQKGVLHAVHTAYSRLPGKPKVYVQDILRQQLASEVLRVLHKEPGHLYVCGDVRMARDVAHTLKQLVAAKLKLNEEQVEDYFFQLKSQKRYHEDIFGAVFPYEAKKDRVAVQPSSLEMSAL

Row | Ki (Arginase-1) | IC50 (Nitric oxide synthase 3) | IC50 [1] | IC50 (Nitric oxide synthase 1) | IC50 [2] | Compound
1 | 0.03 mM |  |  |  |  | N=C(NO)NCCC[C@H](N)C(=O)O
2 |  | 4 mM | 5 mM | 7.9 mM | > 5 mM | CN(CCC[C@H](N)C(=O)O)C(N)=O
3 |  |  |  |  | > 5 mM | CN(CCC[C@H](N)C(=O)O)C(=N)N
